{"source": "patent US8957106B2", "about": "“Iminosugar treatment of tumors” (The Chancellor, Masters and Scholars of the University of …, priority 2007, dated 2015)", "key": {"[1]": {"system": "B16F10 cells", "test": "Cell cycle distribution analysis (PI, flow cytometry), B16F10", "format": "cell-based, murine", "settings": "B16F10, 6 μM, 24 h", "method": "Cell cycle analysis in melanoma cells treated with GC2 was performed by determining DNA content using propidium iodide (PI) staining. PI intercalates into the major groove of double stranded DNA and produces a highly fluorescent adduct that can be excited at 488 nm and with a broad emission centered at 600 nm, see e.g. Krishan A. J. Cell. Biol. 66, 188, 1975. Melanoma cells (20×10^4) were cultured in 25 cm^2 tissue culture flasks for 24 h, followed by a further incubation for indicated time periods with 6 μM GC2. After treatment, adherent cells were trypsinized and a number of viable cells was determined by trypan blue exclusion. […] cells were re-suspended in 200 μl FACS buffer (2% FCS in PBS) and fixed with 600 μl absolute methanol, dropwise added under gentle vortexing, for at least 2 h at −20° C. Fixed cells were washed with FACS buffer, centrifuged for 5 min at 1500 rpm, at 4° C., and incubated for 30 min, in the dark, at room temperature (RT) with 200 μl PI staining solution in 3.8 mM sodium citrate (10 μl RNaze 10 μg/ml previously boiled for 5 min and 1 μl PI 10 mg/ml). The staining solution was removed by centrifugation and the cell pellet was re-suspended in 200 μl FACS buffer. Samples were analyzed for DNA content using a FACScan™ using CellQuest™ software (Becton Dickinson, San Jose, Calif.). […]"}, "[2]": {"system": "B16F10 cells", "test": "Annexin V/PI double labeling, flow cytometry, B16F10", "format": "cell-based, murine", "settings": "B16F10, 6 μM", "method": "(§1) Apoptosis in GC2-treated melanoma cells was detected using Annexin V and PI double labeling assay, see van Engeland, M., et al., Cytometry, 31, 1-9, 1998. Annexin V/PI labeling was applied to both fluorescence microscopy and flow cytometry following the protocol supplied by the manufacturer. Briefly, for fluorescence microscopy analysis adherent cells (approximately 16×10^4) treated with GC2 were washed with annexin V binding buffer, and incubated with Alexa Fluor® 488 Annexin V (5 μl in 1 ml annexin V binding buffer) for 15 min at RT, in the dark, to which 0.2 μg PI was added. Live cells were washed with annexin V binding buffer and examined by microscopy. For flow cytometric analysis, cells treated with GC2 were harvested by trypsinisation and a number of viable cells was counted. 16×10^4 cells were re-suspended in 0.2 ml annexin V binding buffer and treated in the same were adherent cells. Finally, labeled cells were analyzed with a FACScan™ using CellQuest™ software (Becton Dickinson, San Jose, Calif.).\n(§2) Cells cultured under normal conditions for 24 h were further treated for 5 h, 8 h or 24 h with 6 μM of GC2, labeled with annexin V and PI and quantitatively analyzed by flow cytometry for viable, apoptotic and necrotic populations (FIG. 7)."}, "[3]": {"system": "MNT-1 cells", "test": "Annexin V/PI double labeling, flow cytometry, MNT-1", "format": "cell-based", "settings": "MNT-1, 6 μM", "method": "as §1, §2"}, "[4]": {"system": "B16D2 melanoma cells", "test": "MTS cell viability assay, B16D2", "format": "cell-based", "settings": "B16D2, 24 h, read-out: IC50 (concentration reducing number of viable cells by 50%)", "method": "(§3) Cells were cultured at indicated densities for 24 h, medium was removed and the incubation was continued in a fresh culture medium containing various GC2 or DTIC concentrations. In control experiments, cells were grown in a culture medium containing GC2 buffer.\n(§4) The standard […] (MTS)-3-(4,5-dimethylthiazol-2-yl)-5-(3-carboxymethoxyphenyl)-2-(4-sulphophenyl)-2H-tetrazolium inner salt solution assay was performed in order to examine the cytotoxic/cytostatic effect of GC2 on melanoma cells. Briefly, 7.5×10^3 cells were seeded in 96-well microtiter plates (Nunc). After an overnight incubation, serial dilutions of GC2 or DTIC were added in triplicate to a final volume of 100 μl. The blank was represented by a culture medium without cells containing the highest GC2 or DTIC concentration. After 24 h of incubation 20 μl MTS was added to each well and all samples were incubated for 3 h at 37° C. An absorbance of each well was read at 450 nm in a microplate reader. A percentage of cell viability was calculated considering that 100% cell viability was represented by an absorbance of untreated samples […]. Alternatively, the number of viable cells was determined by Trypan blue exclusion test. Melanoma cells treated with GC2 were trypsinized and cells negative for blue staining (viable cells) were counted using a hemocytometer. […]"}, "[5]": {"test": "Solubility in solvent mixture", "format": "physicochemical", "settings": "solvent mixture (GC2 buffer)"}, "[6]": {"system": "MelJuSo melanoma cells", "test": "MTS cell viability assay, MelJuSo", "format": "cell-based", "settings": "Homo sapiens, MEL-JUSO, 24 h, read-out: IC50 (concentration reducing number of viable cells by 50%)", "method": "as §3, §4"}, "[7]": {"system": "B16F10 melanoma cells", "test": "MTS cell viability assay, B16F10", "format": "cell-based, murine", "settings": "Mus musculus, B16-F10, B16F10, 24 h, read-out: IC50 (concentration reducing number of viable cells by 50%)", "method": "as §3, §4"}}}
{"compound": "CC(=O)O.CCCCCCCCCN1[C@@H](CO)[C@@H](O)[C@H](O)[C@@H]1CCCCCCCC", "note": "[GC2, (2S,3R,4R,5S)-3,4-dihydroxy-N-nonyl-5-octyl-2 hydroxymethylpyrrolidinium acetate]", "values": [{"measurement": "number of cells in G2 phase", "setting": "[1]; untreated 21.68%", "value": 16.96, "unit": "%"}, {"measurement": "proportion of surviving cells in G0/G1 phase", "setting": "[1]; untreated 45.42", "value": 53.74, "unit": "%"}, {"measurement": "number of viable, apoptotic or necrotic cells", "setting": "[2]; 5 h", "value": "did not change significantly"}, {"measurement": "increase of apoptotic cells versus control (factor)", "setting": "[2]; 8 h", "value": 1.7}, {"measurement": "increase of necrotic fraction versus control", "setting": "[2]; 8 h", "value": "approximately doubled"}, {"measurement": "apoptotic cells", "setting": "[2]; 8 h, control 1.95%", "value": 3.44, "unit": "%"}, {"measurement": "necrotic fraction", "setting": "[2]; 8 h, control 4.28%", "value": 8.78, "unit": "%"}, {"measurement": "increase of apoptotic cells versus control (factor)", "setting": "[2]; 24 h", "value": 2.9}, {"measurement": "increase of necrotic fraction versus control (factor)", "setting": "[2]; 24 h", "value": 4.4}, {"measurement": "apoptotic cells", "setting": "[2]; 24 h, control 2.28%", "value": 6.72, "unit": "%"}, {"measurement": "necrotic fraction", "setting": "[2]; 24 h, control 4.95%", "value": 22.16, "unit": "%"}, {"measurement": "increase of apoptotic population versus control", "setting": "[3]; 5 h", "value": "doubled"}, {"measurement": "increase of necrotic fraction versus control (factor)", "setting": "[3]; 5 h", "value": 2.3}, {"measurement": "apoptotic population", "setting": "[3]; 5 h, control 3.29%", "value": 6.94, "unit": "%"}, {"measurement": "necrotic fraction", "setting": "[3]; 5 h, control 4.24%", "value": 10.07, "unit": "%"}, {"measurement": "increase of apoptotic population versus control (times)", "setting": "[3]; 8 h", "value": 3.5}, {"measurement": "increase of necrotic fraction versus control (factor)", "setting": "[3]; 8 h", "value": 2.9}, {"measurement": "apoptotic population", "setting": "[3]; 8 h, control 4.32%", "value": 15.49, "unit": "%"}, {"measurement": "necrotic fraction", "setting": "[3]; 8 h, control 5.84%", "value": 17.25, "unit": "%"}, {"measurement": "increase of apoptotic population versus control (times)", "setting": "[3]; 24 h", "value": 7.6}, {"measurement": "increase of necrotic fraction versus control (factor)", "setting": "[3]; 24 h", "value": 9.5}, {"measurement": "necrotic fraction", "setting": "[3]; 24 h, control 2.07%", "value": 19.18, "unit": "%"}, {"measurement": "apoptotic population", "setting": "[3]; 24 h, control 3.25%", "value": 24.86, "unit": "%"}, {"measurement": "IC50", "setting": "[4]", "value": 11, "unit": "µM"}, {"measurement": "solubility", "setting": "[5]", "value": "good solubility"}, {"measurement": "IC50", "setting": "[6]", "value": "7 to 8", "unit": "µM"}, {"measurement": "IC50", "setting": "[7]", "value": "7 to 8", "unit": "µM"}]}
